# According to US10112941B2, “Tricyclic compounds as anticancer agents” (BRISTOL-MYERS SQUIBB COMPANY, priority 2013, dated 2018):
# Biological target: BRD4 (Homo sapiens, UniProt O60885)
# Experiment: Time Resolved Fluorescence Resonance Energy Transfer (TR-FRET) binding assay, BRD4
# Settings: FRET BRD4 IC50 (nM), one of the FRET assays described
row,SMILES,IC50
1,"Cn1nnc(Br)c1-c1cnc2c3ccc(C(C)(C)O)cc3n([C@H](c3ccccc3)C3CCOCC3)c2c1 [Example 384, 2-[3-(4-Bromo-1-methyl-1H-1,2,3-triazol-5-yl)-5-[(S)-oxan-4-yl(phenyl)methyl]-5H-pyrido[3,2-b]indol-7-yl]propan-2-ol]",< 5 nM
2,"Cn1nnc(Cl)c1-c1cnc2c3ccc(C(C)(C)O)cc3n([C@H](c3ccccc3)C3CCOCC3)c2c1 [Example 387, 2-[3-(4-Chloro-1-methyl-1H-1,2,3-triazol-5-yl)-5-[(S)-oxan-4-yl(phenyl)methyl]-5H-pyrido[3,2-b]indol-7-yl]propan-2-ol]",< 5 nM

# Same assay, conditions: one of the FRET assays described; read-out: FRET BRD4 IC50
row,SMILES,IC50
1,"CCOc1nnn(C)c1-c1cnc2c3ccc(C(C)(C)O)cc3n([C@H](c3ccccc3)C3CCOCC3)c2c1 [Example 382, 2-[3-(4-Ethoxy-1-methyl-1H-1,2,3-triazol-5-yl)-5-[(S)-oxan-4-yl(phenyl)methyl]-5H-pyrido[3,2-b]indol-7-yl]propan-2-ol]",< 5 nM
2,"Cn1nnc(Br)c1-c1cnc2c3cc(Br)c(C(C)(C)O)cc3n([C@H](c3ccccc3)C3CCOCC3)c2c1 [Example 383, 2-[8-Bromo-3-(4-bromo-1-methyl-1H-1,2,3-triazol-5-yl)-5-[(S)-oxan-4-yl(phenyl)methyl]-5H-pyrido[3,2-b]indol-7-yl]propan-2-ol]",< 5 nM
3,"Cn1nnc(C2CC2)c1-c1cnc2c3ccc(C(C)(C)O)cc3n([C@H](c3ccccc3)C3CCOCC3)c2c1 [Example 385, 2-[3-(4-Cyclopropyl-1-methyl-1H-1,2,3-triazol-5-yl)-5-[(S)-oxan-4-yl(phenyl)methyl]-5H-pyrido[3,2-b]indol-7-yl]propan-2-ol]",< 5 nM
4,"Cn1nnc(Cl)c1-c1cnc2c3cc(Cl)c(C(C)(C)O)cc3n([C@H](c3ccccc3)C3CCOCC3)c2c1 [Example 386, 2-[8-Chloro-3-(4-chloro-1-methyl-1H-1,2,3-triazol-5-yl)-5-[(S)-oxan-4-yl(phenyl)methyl]-5H-pyrido[3,2-b]indol-7-yl]propan-2-ol]",< 5 nM
5,"CCc1nnn(C)c1-c1cnc2c3ccc(C(C)(C)O)cc3n([C@H](c3ccccc3)C3CCOCC3)c2c1 [Example 388, 2-[3-(4-Ethyl-1-methyl-1H-1,2,3-triazol-5-yl)-5-[(S)-oxan-4-yl(phenyl)methyl]-5H-pyrido[3,2-b]indol-7-yl]propan-2-ol]",< 5 nM
6,"Cn1nnc(N)c1-c1cnc2c3ccc(C(C)(C)O)cc3n([C@H](c3ccccc3)C3CCOCC3)c2c1 [Example 389, 2-[3-(4-Amino-1-methyl-1H-1,2,3-triazol-5-yl)-5-[(S)-oxan-4-yl(phenyl)methyl]-5H-pyrido[3,2-b]indol-7-yl]propan-2-ol]",< 5 nM
7,"CNc1nnn(C)c1-c1cnc2c3ccc(C(C)(C)O)cc3n([C@H](c3ccccc3)C3CCOCC3)c2c1 [Example 390, 2-{3-[1-Methyl-4-(methylamino)-1H-1,2,3-triazol-5-yl]-5-[(S)-oxan-4-yl(phenyl)methyl]-5H-pyrido[3,2-b]indol-7-yl}propan-2-ol]",< 5 nM
8,"COc1nnn(C)c1-c1cnc2c3ccc(S(C)(=O)=O)cc3n([C@H](c3ccccc3)C3CCOCC3)c2c1 [Example 391, 5-{7-Methanesulfonyl-5-[(S)-oxan-4-yl(phenyl)methyl]-5H-pyrido[3,2-b]indol-3-yl}-4-methoxy-1-methyl-1H-1,2,3-triazole]",< 5 nM
9,"[2H]C([2H])([2H])Oc1nnn(C)c1-c1cnc2c3ccc(NC(=O)OC(C)C)cc3n([C@H](c3ccccc3)C3CCOCC3)c2c1 [Example 392, Propan-2-yl N-{3-[4-(^2H3)methoxy-1-methyl-1H-1,2,3-triazol-5-yl]-5-[(S)-oxan-4-yl(phenyl)methyl]-5H-pyrido[3,2-b]indol-7-yl}carbamate]",< 5 nM
10,"[2H]C([2H])([2H])c1nnn(C)c1-c1cnc2c3ccc(C(C)(C)O)c(Cl)c3n([C@H](c3ccccc3)C3CCOCC3)c2c1 [Example 393, 2-{6-Chloro-3-[4-(^2H3)methyl-1-methyl-1H-1,2,3-triazol-5-yl]-5-[(S)-oxan-4-yl(phenyl)methyl]-5H-pyrido[3,2-b]indol-7-yl}propan-2-ol]",< 5 nM
11,"Cc1nnn(C)c1-c1cnc2c3ccc(CO)cc3n([C@H](c3ccccc3)C3CCOCC3)c2c1 [Example 405, [3-(Dimethyl-1H-1,2,3-triazol-5-yl)-5-[(S)-oxan-4-yl(phenyl)methyl]-5H-pyrido[3,2-b]indol-7-yl]methanol]",< 5 nM
12,"[2H]C([2H])(O)c1ccc2c3ncc(-c4c(C)nnn4C)cc3n([C@H](c3ccccc3)C3CCOCC3)c2c1 [Example 407, [3-(Dimethyl-1H-1,2,3-triazol-5-yl)-5-[(S)-oxan-4-yl(phenyl)methyl]-5H-pyrido[3,2-b]indol-7-yl](^2H2)methanol]",< 5 nM
13,"Cc1nnn(C)c1-c1cnc2c3ccc(C(O)(C4CC4)C4CC4)cc3n([C@H](c3ccccc3)C3CCOCC3)c2c1 [Example 408, Dicyclopropyl[3-(dimethyl-1H-1,2,3-triazol-5-yl)-5-[(S)-oxan-4-yl(phenyl)methyl]-5H-pyrido[3,2-b]indol-7-yl]methanol]",< 5 nM
14,"Cc1nnn(C)c1-c1cnc2c3cc(Cl)c(C(C)(C)O)cc3n([C@H](c3ccccc3)C3CCOCC3)c2c1 [Example 409, 2-[8-Chloro-3-(dimethyl-1H-1,2,3-triazol-5-yl)-5-[(S)-oxan-4-yl(phenyl)methyl]-5H-pyrido[3,2-b]indol-7-yl]propan-2-ol]",< 5 nM
15,"Cc1nnn(C)c1-c1cnc2c3ccc(C(C)(C)NS(C)(=O)=O)cc3n([C@H](c3ccccc3)C3CCOCC3)c2c1 [Example 411, N-{2-[3-(Dimethyl-1H-1,2,3-triazol-5-yl)-5-[(S)-oxan-4-yl(phenyl)methyl]-5H-pyrido[3,2-b]indol-7-yl]propan-2-yl}methanesulfonamide]",< 5 nM
16,"COC(=O)NC(C)(C)c1ccc2c3ncc(-c4c(C)nnn4C)cc3n([C@H](c3ccccc3)C3CCOCC3)c2c1 [Example 412, Methyl N-{2-[3-(dimethyl-1H-1,2,3-triazol-5-yl)-5-[(S)-oxan-4-yl(phenyl)methyl]-5H-pyrido[3,2-b]indol-7-yl]propan-2-yl}carbamate]",< 5 nM
17,"Cc1nnn(C)c1-c1cnc2c3ccc(C(=O)N4CC(F)C4)cc3n([C@H](c3ccccc3)C3CCOCC3)c2c1 [Example 413, 5-[7-(3-Fluoroazetidine-1-carbonyl)-5-[(S)-oxan-4-yl(phenyl)methyl]-5H-pyrido[3,2-b]indol-3-yl]-1,4-dimethyl-1H-1,2,3-triazole]",< 5 nM
18,"Cc1nnn(C)c1-c1cnc2c3ccc(C(=O)N4CC(F)(F)C4)cc3n([C@H](c3ccccc3)C3CCOCC3)c2c1 [Example 414, 5-[7-(3,3-Difluoroazetidine-1-carbonyl)-5-[(S)-oxan-4-yl(phenyl)methyl]-5H-pyrido[3,2-b]indol-3-yl]-1,4-dimethyl-1H-1,2,3-triazole]",< 5 nM
19,"Cc1nnn(C)c1-c1cnc2c3ccc(C(C)(O)C4CC4)c(F)c3n([C@H](c3ccccc3)C3CCOCC3)c2c1 (stereo partly drawn) [Example 415, 1-Cyclopropyl-1-{6-fluoro-3-[4-(^2H3)methyl-1-methyl-1H-1,2,3-triazol-5-yl]-5-[(S)-oxan-4-yl(phenyl)methyl]-5H-pyrido[3,2-b]indol-7-yl}ethan-1-ol]",< 5 nM
20,"Cc1nnn(C)c1-c1cnc2c3ccc(C(C)(O)C4CC4)c(F)c3n([C@H](c3ccccc3)C3CCOCC3)c2c1 (stereo partly drawn) [Example 416, 1-Cyclopropyl-1-{6-fluoro-3-[4-(^2H3)methyl-1-methyl-1H-1,2,3-triazol-5-yl]-5-[(S)-oxan-4-yl(phenyl)methyl]-5H-pyrido[3,2-b]indol-7-yl}ethan-1-ol]",< 5 nM
21,"Cc1cnn(C)c1-c1cnc2c3ccc(S(C)(=O)=O)cc3n([C@H](c3ccccc3)C3CCOCC3)c2c1 [Example 417, 5-{7-Methanesulfonyl-5-[(S)-oxan-4-yl(phenyl)methyl]-5H-pyrido[3,2-b]indol-3-yl}-1,4-dimethyl-1H-pyrazole]",< 5 nM
22,"Cn1nccc1-c1cnc2c3ccc(S(C)(=O)=O)cc3n([C@H](c3ccccc3)C3CCOCC3)c2c1 [Example 418, 5-{7-Methanesulfonyl-5-[(S)-oxan-4-yl(phenyl)methyl]-5H-pyrido[3,2-b]indol-3-yl}-1-methyl-1H-pyrazole]",< 25 nM
23,"Cc1nnn(C)c1-c1cnc2c3ccc(C4(O)CC4)cc3n([C@H](c3ccccc3)C3CCOCC3)c2c1 [Example 419, 1-[3-(Dimethyl-1H-1,2,3-triazol-5-yl)-5-[(S)-oxan-4-yl(phenyl)methyl]-5H-pyrido[3,2-b]indol-7-yl]cyclopropan-1-ol]",< 5 nM
24,"C=C(C)c1ccc2c3ncc(-c4c(C)nnn4C)cc3n([C@H](c3ccccc3)C3CCOCC3)c2c1 [Example 420, 1,4-Dimethyl-5-{5-[(S)-oxan-4-yl(phenyl)methyl]-7-(prop-1-en-2-yl)-5H-pyrido[3,2-b]indol-3-yl}-1H-1,2,3-triazole]",< 5 nM
25,"CC(=O)c1ccc2c3ncc(-c4c(C)nnn4C)cc3n([C@H](c3ccccc3)C3CCOCC3)c2c1 [Example 421, 1-[3-(Dimethyl-1H-1,2,3-triazol-5-yl)-5-[(S)-oxan-4-yl(phenyl)methyl]-5H-pyrido[3,2-b]indol-7-yl]ethan-1-one]",< 5 nM
26,"Cc1nnn(C)c1-c1cnc2c3ccc(C(C)(O)CO)cc3n([C@H](c3ccccc3)C3CCOCC3)c2c1 (stereo partly drawn) [Example 424, 2-[3-(Dimethyl-1H-1,2,3-triazol-5-yl)-5-[(S)-oxan-4-yl(phenyl)methyl]-5H-pyrido[3,2-b]indol-7-yl]propane-1,2-diol]",< 5 nM
27,"Cc1nnn(C)c1-c1cnc2c3cc(C(=O)N4CC(C)(O)C4)ccc3n([C@H](c3ccccc3)C3CCOCC3)c2c1 [Example 427, 1-[3-(Dimethyl-1H-1,2,3-triazol-5-yl)-5-[(S)-oxan-4-yl(phenyl)methyl]-5H-pyrido[3,2-b]indole-8-carbonyl]-3-methylazetidin-3-ol]",< 5 nM
28,"Cc1nnn(C)c1-c1cnc2c3ccc([C@@](C)(O)C4CC4)c(F)c3n([C@H](c3ccccc3)C3CCOCC3)c2c1 [Example 431, (1S)-1-Cyclopropyl-1-[3-(dimethyl-1H-1,2,3-triazol-5-yl)-6-fluoro-5-[(S)-oxan-4-yl(phenyl)methyl]-5H-pyrido[3,2-b]indol-7-yl]ethan-1-ol]",< 5 nM
